For one experiment, the system named is allergic rhinitis. The experiment in a line: allergic rhinitis, sneezing and nasal rubbing after antigen challenge in sensitised rats. In kind it is in vivo, rat. The following applies: % as compared to untreated; topical 10 μl/each nostril 1 h before antigen challenge; counted 30 min. The procedure: Six-week-old male Wistar rats were housed in an air-conditioned room maintained at about 25° C. with humidity of about 50%. Rats were given a standard laboratory rodent chow and water ad libitum.
Rats were generally sensitised by injection of 0.6 ml physiological saline containing egg albumin (1 mg), alum (2 mg) and […] killed Bordetella pertussis into the four footpads on the first day. Five days later they were boosted by subcutaneous injection of 1 ml of physiological saline containing egg albumin (0.5 mg) in 10 sites on the back. Then, local sensitisation was performed every day for about one week from day 14 by dripping the egg albumin dissolved in physiological saline (1 mg/ml, 10 μl) into the bilateral nasal cavities using a micropipette.
After dripping 10 μl of egg albumin dissolved in physiological saline solution (1 mg/ml) into the bilateral nasal cavities, the numbers of nasal rubbing and sneezing were counted for 30 min and was set to 100%.
In this study, the rats were used following intranasal sensitisation (from day 21 to day 23 after the first sensitisation). On the last day, drugs (saline or oxytocin) were given topically (10 μl/each nostril) 1 h before topical antigen challenge. […] Also saline caused a minor decrease.

In a further experiment the test system is N-acetyl-LTE4. The experiment in a line: OVA-induced N-acetyl-LTE4 synthesis in BN rats (experimental asthma model). In kind it is in vivo, rat. Conditions: for biliary excretion of N-acetyl-LTE4: 1.0 mg/kg by aerosol. As to the method: Inbred male BN rats, 7-9 weeks old, were obtained from Harlan Sprague-Dawley. Active sensitisation was performed by subcutaneous injection of 1 ml of saline containing 1 mg of ovalbumin and 3.48 mg of aluminum hydroxide. At the same time, 0.3 ml of Bordetella pertussis vaccine containing heat-killed organisms was given intraperitoneally as an adjuvant. Animals were studied 14-21 days after sensitisation.
Two groups of rats (n=3 for each group) were lightly anaesthetised with xylazine (7 mg/kg) and pentobarbital (30 mg/kg ip) before endotracheal intubation. Each rat then received either saline or 1.0 mg/kg oxytocin (1.0 mg/ml) by aerosol over a period of 5 min using a disposable nebulizer at a flow rate of […] and an output of 0.15 ml/min. Seventeen hours later, the animals were again anaesthetised, and these treatments were repeated. After a further hour, each of the rats was challenged with aerosolised 5% OVA in saline for 5 min.
Before the second treatment with oxytocin or saline, the rats were anaesthetised with urethane (1 g/kg ip, 50% wt/vol). After blind orotracheal intubation (6 cm of PE-240 polyethylene catheter), the common bile duct was exposed and cannulated (15 cm of PE-20 polyethylene tubing) after ligation of duodenal end. The rats were allowed to stabilise for a period of 2 h before challenge with OVA. Bile was collected for 1 h before and for 2 consecutive periods of 1 h after OVA challenge ([…]). All bile samples were collected on ice in 1.5-ml Eppendorf tubes. The bile was kept frozen at […] before analysis.
Bile samples were thawed, and methanol was added to 0.3-ml aliquots to give a final concentration of 80%. […] Ultraviolet absorbance was monitored by a variable wavelength ultraviolet detector. […]
Column fractions were evaporated to dryness in a centrifuge under vacuum, and the residues were dissolved in phosphate-buffered saline (0.1 ml at pH 8.2). N-acetyl-LTE4 was measured in each fraction by using a monoclonal antibody directed against LTC4, which cross-reacted with N-acetyl-LTE4. […]

As for Oxytocin, in the experiment on allergic rhinitis, the Nasal rubbing is recorded as 42% and the Sneezing is reported as 52%. Further, the “biliary excretion of N-acetyl-LTE4” value with N-acetyl-LTE4 (early response 0-1 h after OVA challenge, control 6.9±1.8) was determined as 4.3 ± 2.1 pmol/h. Moreover, the “biliary excretion of N-acetyl-LTE4” value in the experiment on N-acetyl-LTE4 (late response 5-6 h after OVA challenge, control 5.2±0.9) is 2.6 ± 0.8 pmol/h. The “levels of N-acetyl-LTE4 in oxytocin-treated vs control groups” value with N-acetyl-LTE4 (before OVA challenge) is recorded as “almost identical”.

For the origin of these results see patent US20060234919A1, “Use” (priority 2001, published 2006).
